Patent publication US12509452B2, “Substituted-isoxazoline-containing aromatic compound, preparation method therefor, herbicidal composition and use thereof” (QINGDAO KINGAGROOT CHEMICAL COMPOUND CO., LTD., priority 2019, dated 2025)

Experiments:
Experiment in all cases: weeding effect in post-emergence stage
Assay type in all cases: in vivo
Rorippa indica = tested on: Rorippa indica
Source text: (§1) The activity level criteria for plant damage (i.e., growth control rate) are as follows: • Level 5: growth control rate is above 85%; • Level 4: growth control rate is greater than or equal to 60% and less than 85%; • Level 3: growth control rate is greater than or equal to 40% and less than 60%; • Level 2: growth control rate is greater than or equal to 20% and less than 40%; • Level 1: growth control rate is greater than or equal to 5% and less than 20%; • Level 0: growth control rate is less than 5%.
(§2) The above growth control rates are fresh weight control rates.
(§3) Experiment on weeding effect in post-emergence stage:
(§4) Monocotyledonous and dicotyledonous weed seeds (Descurainia sophia, Capsella bursa-pastoris, Abutilon theophrasti, Galium aparine, Stellaria media, Lithospermum arvense, Rorippa indica, Alopecurus aequalis, Alopecurus japonicus, Beckmannia syzigachne, Sclerochloa dura, Conyza Canadensis, Phleum paniculatum, Veronica didyma Tenore, Bromus japonicus, Aegilops tauschii, Phalaris arundinacea, Amaranthus retroflexus, Chenopodium album, Commelina communis, Sonchus arvensis, Convolvulus arvensis, Cirsium setosum, Solanum nigrum, Acalypha australis, Digitaria sanguinalis, Echinochloa crusgalli, Setaria viridis, Setaria glauca, Leptochloa chinensis, Monochoria vaginalis, Sagittaria trifolia, Scirpus juncoides, Cyperus rotundus, Cyperus iria, Cyperus difformis, Fimbristylis, Portulaca oleracea, Xanthium sibiricum, Pharbitis nil, Conyza japonica, etc.) and major crop seeds (wheat, corn, rice, soybean, cotton, oilseed rape, millet, sorghum, potato, sesame, ricinus, etc.) were placed in plastic pots filled with soil, then covered with 0.5-2 cm of soil, allowed to grow in a good greenhouse environment. After 2 weeks of sowing, the test plants were treated in the 2-3 leaf stage. The tested compounds of the present invention were respectively dissolved in acetone, then added with Tween 80 and 1.5 liter/ha of emulsifiable concentrate of methyl oleate as synergist, diluted with a certain amount of water to obtain a solution with a certain concentration, and sprayed with a spray tower onto the plants. After the application, the plants were cultured for 3 weeks in the greenhouse, and then the experimental results of the weeding were counted. The doses of the used compounds were 500, 250, 125, 60, 15, 7.5 g a.i./ha, and the averages were obtained by repeating for three times.

Conyza japonica = tested on: Conyza japonica
Source text: as §1, §2, §3, §4

Alopecurus japonicus = tested on: Alopecurus japonicus
Source text: as §1, §2, §3, §4

Beckmannia syzigachne = tested on: Beckmannia syzigachne
Source text: as §1, §2, §3, §4

CCOC(=O)C1(CC)CC(c2cc(-n3c(=O)cc(C(F)(F)F)n(C)c3=S)c(F)cc2Cl)=NO1 (racemic) [Compound 229]
weeding effect in post-emergence stage, Rorippa indica (activity level) (Rorippa indica; dose 125 g a.i./ha): 5 (Level 5: growth control rate is above 85%) | weeding effect in post-emergence stage, Conyza japonica (activity level) (Conyza japonica; dose 125 g a.i./ha): 5 (Level 5: growth control rate is above 85%) | weeding effect in post-emergence stage, Alopecurus japonicus (activity level) (Alopecurus japonicus; dose 125 g a.i./ha): 5 (Level 5: growth control rate is above 85%) | weeding effect in post-emergence stage, Beckmannia syzigachne (activity level) (Beckmannia syzigachne; dose 125 g a.i./ha): 5 (Level 5: growth control rate is above 85%)

CCOC(=O)C1(CC)CC(c2cc(-n3c(=S)cc(C(F)(F)F)n(C)c3=S)c(F)cc2Cl)=NO1 (racemic) [Compound 230]
weeding effect in post-emergence stage, Rorippa indica (activity level) (Rorippa indica; dose 125 g a.i./ha): 5 (Level 5: growth control rate is above 85%) | weeding effect in post-emergence stage, Conyza japonica (activity level) (Conyza japonica; dose 125 g a.i./ha): 5 (Level 5: growth control rate is above 85%) | weeding effect in post-emergence stage, Alopecurus japonicus (activity level) (Alopecurus japonicus; dose 125 g a.i./ha): 5 (Level 5: growth control rate is above 85%) | weeding effect in post-emergence stage, Beckmannia syzigachne (activity level) (Beckmannia syzigachne; dose 125 g a.i./ha): 5 (Level 5: growth control rate is above 85%)

CCOC(=O)C1(C2CC2)CC(c2cc(-n3c(=S)cc(C(F)(F)F)n(C)c3=O)c(F)cc2Cl)=NO1 (racemic) [Compound 231]
weeding effect in post-emergence stage, Rorippa indica (activity level) (Rorippa indica; dose 15 g a.i./ha): 5 (Level 5: growth control rate is above 85%) | weeding effect in post-emergence stage, Rorippa indica (activity level) (Rorippa indica; dose 125 g a.i./ha): 5 (Level 5: growth control rate is above 85%) | weeding effect in post-emergence stage, Conyza japonica (activity level) (Conyza japonica; dose 15 g a.i./ha): 5 (Level 5: growth control rate is above 85%) | weeding effect in post-emergence stage, Conyza japonica (activity level) (Conyza japonica; dose 125 g a.i./ha): 5 (Level 5: growth control rate is above 85%) | weeding effect in post-emergence stage, Alopecurus japonicus (activity level) (Alopecurus japonicus; dose 125 g a.i./ha): 5 (Level 5: growth control rate is above 85%) | weeding effect in post-emergence stage, Beckmannia syzigachne (activity level) (Beckmannia syzigachne; dose 15 g a.i./ha): 4 (Level 4: growth control rate is greater than or equal to 60% and less than 85%) | weeding effect in post-emergence stage, Beckmannia syzigachne (activity level) (Beckmannia syzigachne; dose 125 g a.i./ha): 5 (Level 5: growth control rate is above 85%)

CCOC(=O)[C@]1(CC)CC(c2cc(-n3c(=O)n(C)c(=S)n(C)c3=O)c(F)cc2Cl)=NO1 [3(S)]
weeding effect in post-emergence stage, Rorippa indica (activity level) (Rorippa indica; dose 7.5 g a.i./ha): 5 (Level 5: growth control rate is above 85%) | weeding effect in post-emergence stage, Rorippa indica (activity level) (Rorippa indica; dose 125 g a.i./ha): 5 (Level 5: growth control rate is above 85%) | weeding effect in post-emergence stage, Conyza japonica (activity level) (Conyza japonica; dose 7.5 g a.i./ha): 4 (Level 4: growth control rate is greater than or equal to 60% and less than 85%) | weeding effect in post-emergence stage, Conyza japonica (activity level) (Conyza japonica; dose 125 g a.i./ha): 5 (Level 5: growth control rate is above 85%) | weeding effect in post-emergence stage, Alopecurus japonicus (activity level) (Alopecurus japonicus; dose 7.5 g a.i./ha): 5 (Level 5: growth control rate is above 85%) | weeding effect in post-emergence stage, Alopecurus japonicus (activity level) (Alopecurus japonicus; dose 125 g a.i./ha): 5 (Level 5: growth control rate is above 85%) | weeding effect in post-emergence stage, Beckmannia syzigachne (activity level) (Beckmannia syzigachne; dose 7.5 g a.i./ha): 4 (Level 4: growth control rate is greater than or equal to 60% and less than 85%) | weeding effect in post-emergence stage, Beckmannia syzigachne (activity level) (Beckmannia syzigachne; dose 125 g a.i./ha): 5 (Level 5: growth control rate is above 85%)

CCC[C@@]1(C(=O)OCC)CC(c2cc(-n3c(=O)n(C)c(=S)n(C)c3=O)c(F)cc2Cl)=NO1 [4(S)]
weeding effect in post-emergence stage, Rorippa indica (activity level) (Rorippa indica; dose 15 g a.i./ha): 5 (Level 5: growth control rate is above 85%) | weeding effect in post-emergence stage, Rorippa indica (activity level) (Rorippa indica; dose 125 g a.i./ha): 5 (Level 5: growth control rate is above 85%) | weeding effect in post-emergence stage, Conyza japonica (activity level) (Conyza japonica; dose 15 g a.i./ha): 5 (Level 5: growth control rate is above 85%) | weeding effect in post-emergence stage, Conyza japonica (activity level) (Conyza japonica; dose 125 g a.i./ha): 5 (Level 5: growth control rate is above 85%) | weeding effect in post-emergence stage, Alopecurus japonicus (activity level) (Alopecurus japonicus; dose 15 g a.i./ha): 5 (Level 5: growth control rate is above 85%) | weeding effect in post-emergence stage, Alopecurus japonicus (activity level) (Alopecurus japonicus; dose 125 g a.i./ha): 5 (Level 5: growth control rate is above 85%) | weeding effect in post-emergence stage, Beckmannia syzigachne (activity level) (Beckmannia syzigachne; dose 15 g a.i./ha): 5 (Level 5: growth control rate is above 85%) | weeding effect in post-emergence stage, Beckmannia syzigachne (activity level) (Beckmannia syzigachne; dose 125 g a.i./ha): 5 (Level 5: growth control rate is above 85%)

CCOC(=O)[C@@]1(C2CC2)CC(c2cc(-n3c(=O)n(C)c(=S)n(C)c3=O)c(F)cc2Cl)=NO1 [17(S)]
weeding effect in post-emergence stage, Rorippa indica (activity level) (Rorippa indica; dose 125 g a.i./ha): 5 (Level 5: growth control rate is above 85%) | weeding effect in post-emergence stage, Conyza japonica (activity level) (Conyza japonica; dose 125 g a.i./ha): 5 (Level 5: growth control rate is above 85%) | weeding effect in post-emergence stage, Alopecurus japonicus (activity level) (Alopecurus japonicus; dose 125 g a.i./ha): 5 (Level 5: growth control rate is above 85%) | weeding effect in post-emergence stage, Beckmannia syzigachne (activity level) (Beckmannia syzigachne; dose 125 g a.i./ha): 5 (Level 5: growth control rate is above 85%)

CCOC(=O)[C@]1(CBr)CC(c2cc(-n3c(=O)n(C)c(=S)n(C)c3=O)c(F)cc2Cl)=NO1 [31(S)]
weeding effect in post-emergence stage, Rorippa indica (activity level) (Rorippa indica; dose 15 g a.i./ha): 5 (Level 5: growth control rate is above 85%) | weeding effect in post-emergence stage, Conyza japonica (activity level) (Conyza japonica; dose 15 g a.i./ha): 5 (Level 5: growth control rate is above 85%) | weeding effect in post-emergence stage, Alopecurus japonicus (activity level) (Alopecurus japonicus; dose 15 g a.i./ha): 5 (Level 5: growth control rate is above 85%) | weeding effect in post-emergence stage, Beckmannia syzigachne (activity level) (Beckmannia syzigachne; dose 15 g a.i./ha): 5 (Level 5: growth control rate is above 85%)
